# How the values were obtained:
# TTK = target: T1, TTK (Homo sapiens, UniProt P33981); experiment: Immunoblot of TTK in CALU1 cells; type: cell-based; set-up: endogenous in cells; details: 6 h
# T1 sequence (P33981 1-857): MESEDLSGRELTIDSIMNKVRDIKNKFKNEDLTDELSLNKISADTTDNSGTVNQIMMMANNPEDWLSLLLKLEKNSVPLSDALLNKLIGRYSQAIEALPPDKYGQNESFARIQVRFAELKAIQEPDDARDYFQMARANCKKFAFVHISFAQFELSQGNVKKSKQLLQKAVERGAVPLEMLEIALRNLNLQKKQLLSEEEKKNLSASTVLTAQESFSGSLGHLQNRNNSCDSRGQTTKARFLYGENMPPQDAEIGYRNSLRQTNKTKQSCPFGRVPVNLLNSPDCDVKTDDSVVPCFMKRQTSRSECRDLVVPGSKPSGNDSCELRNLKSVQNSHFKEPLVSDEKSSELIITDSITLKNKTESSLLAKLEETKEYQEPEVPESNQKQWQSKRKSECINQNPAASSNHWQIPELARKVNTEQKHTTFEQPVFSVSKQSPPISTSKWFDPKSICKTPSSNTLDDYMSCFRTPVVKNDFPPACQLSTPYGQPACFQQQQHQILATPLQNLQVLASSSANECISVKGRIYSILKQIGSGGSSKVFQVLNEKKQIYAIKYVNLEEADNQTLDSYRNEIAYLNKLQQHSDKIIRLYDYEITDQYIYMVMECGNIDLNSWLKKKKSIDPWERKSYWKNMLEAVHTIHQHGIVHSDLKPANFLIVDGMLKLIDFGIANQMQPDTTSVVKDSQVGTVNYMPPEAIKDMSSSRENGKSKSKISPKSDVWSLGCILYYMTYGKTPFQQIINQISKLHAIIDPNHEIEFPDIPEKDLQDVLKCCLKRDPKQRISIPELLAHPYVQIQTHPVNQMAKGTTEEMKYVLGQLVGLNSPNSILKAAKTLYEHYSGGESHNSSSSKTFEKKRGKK
# Experimental: The cells were treated with compounds or vehicle for indicated time points and lysed in RIPA lysis buffer (50 mM HEPES pH 7.9, 140 mM NaCl, 1 mM EDTA, 1% Triton X-100, 0.1% SDS, 0.1% sodium deoxycholate) containing protease and phosphatase inhibitors (Sigma) for 20 min at 4 °C. Cell lysates were cleared by centrifugation, and protein concentration was determined with bicinchoninic acid assay. Equal amounts of protein per sample were separated by Bis-Tris-PAGE and transferred to PVDF membranes (Millipore). The membranes were blocked with 5% (w/v) nonfat dry milk in TBS-T [20 mM Tris–HCl, pH 7.5, 150 mM NaCl, 0.1% (v/v) Tween-20] for 1 h at room temperature and incubated with primary antibody at 4 °C overnight. Visualization was carried out using horseradish peroxidase (HRP)-labeled secondary antibodies and detected using a chemiluminescent HRP substrate (Millipore) in LAS3000 or LAS4000 mini (Fujifilm). Vinculin, GAPDH, or B-actin were used as a loading control. The loading control was probed along with the target antibody by cutting the membrane. For targets with similar molecular weights, the samples were run in duplicate and probed with their respective loading controls, although only one control was shown in the figure for all targets. The signal was quantified using ImageJ or Image Studio Lite against the corresponding loading controls. Antibodies used in this study were as follows: Aurora A/AIK (Cell Signaling Technology, 3092), Aurora B (Bethyl Laboratories, A300–431A), TTK (Santa Cruz Biotechnology, sc-56968), GAPDH (Cell Signaling Technology, 2118), B-Actin (Sigma, A5441), and Vinculin (Sigma, V9131). […]
# Figure S2: Cellular degradation studies of SF1-based compounds. […]
# (E), 18 (F), and 14 or 20 (G) for 6 h and compared with vehicle treated cells. (H-J) Immunoblots of TTK and AURKB. CALU1 cells were treated with indicated concentration of 14 or 20 (H), 44 or 47 (I), and 46 (J) for 6 h and compared with DMSO treated cells. All HiBiT data are represented as a mean ±s.d. from n=2 replicates. […]
# MV4-11 cells (naive) = experiment: alamarBlue cell viability assay; type: cell-based, human; details: 72 h treatment, MV4-11 cells (naive); read-out: EC50 (concentration that decreases cell viability by 50%)
# Outline: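 Cells exposed to compound concentration series or vehicle for 72 h (unless otherwise stated); alamarBlue added a few hours before end point. Read-out by fluorescence (ex 550/em 600 nm) or absorbance (570 nm, 600 nm reference).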
# [1] = target: T2, TTK (MV4-11^HiBiT-TTK cells) (Homo sapiens, UniProt P33981); experiment: HiBiT assay, TTK degradation; type: cell-based; set-up: key to Dmax (maximal degradation) TTK: compounds with degradation less than 15% reported as “inactive”; details: 6 h treatment, MV4-11^HiBiT-TTK cells; for DC50: read-out: DC50 (half-maximal degradation concentration) TTK
# T2 construct: expressed in transfected cells; host or cells: MV4-11, lentiviral transduction (pRRL-PGK-HiBiT entry vector)
# T2 sequence (P33981 1-857): T1 sequence (P33981 1-857)
# Outline: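 MV4-11 lines stably expressing HiBiT-tagged AURKA, AURKB or TTK (lentiviral) were treated with serial compound dilutions for the indicated times. Remaining tagged protein was read by lytic HiBiT luminescence, and DC50 was fitted with a four-parameter dose–response equation using concentrations showing sigmoidal behaviour.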
SMILES,"relative TTK level (immunoblot quantification, DMSO = 1.00) (TTK; 10 µM)",EC50 (MV4-11 cells (naive)),Dmax (maximal degradation) TTK [1],DC50 [1],"relative TTK level (immunoblot quantification, DMSO = 1.00) (TTK; 0.01 µM)","relative TTK level (immunoblot quantification, DMSO = 1.00) (TTK; 0.1 µM)",DC50 (half-maximal degradation concentration) TTK [1]
CC(C)S(=O)(=O)c1ccccc1Nc1nc(Nc2ccc(N3CCN(C(=O)CCCC(=O)Nc4cccc5c4C(=O)N(C4CCC(=O)NC4=O)C5=O)CC3)cc2)nc2[nH]cnc12 (stereo not shown) [Compound 14],1.00,0.214 µM,28.50%,0.396 µM,–,–,–
Cc1ncsc1-c1ccc(CNC(=O)[C@@H]2C[C@@H](O)CN2C(=O)[C@@H](NC(=O)COCCOCC(=O)N2CCN(c3ccc(Nc4nc(Nc5ccccc5S(=O)(=O)C(C)C)c5nc[nH]c5n4)cc3)CC2)C(C)(C)C)cc1 [Compound 49],–,2.56 µM,47.40%,5.71 µM,–,–,–
Cc1ncsc1-c1ccc(CNC(=O)[C@@H]2C[C@@H](O)CN2C(=O)[C@@H](NC(=O)CCCC(=O)N2CCN(c3ccc(Nc4nc(Nc5ccccc5S(=O)(=O)C(C)C)c5nc[nH]c5n4)cc3)CC2)C(C)(C)C)cc1 [Compound 44],–,1.16 µM,inactive,–,0.79,0.79,– (compounds with degradation less than 25% were not calculated and reported as “–”)
CC(C)S(=O)(=O)c1ccccc1Nc1nc(Nc2ccc(N3CCN(C(=O)CNC(=O)CCCC(=O)Nc4cccc5c4C(=O)N(C4CCC(=O)NC4=O)C5=O)CC3)cc2)nc2[nH]cnc12 (stereo not shown) [Compound 20],–,0.577 µM,48.33%,0.281 µM,–,0.87,–
